Among the data in patent US8741836B2, “Polypeptides” (Novo Nordisk A/S, priority 2011, dated 2014) are EC50 and solubility values, retold here.

Where two headings read alike, the source gives them in different places. Starred links: 1 amine or outer side, 2 acyl side, 3 side chain; linkers in the order of their positions; H or OH if unused. Positions of bridges follow the written chain, without caps; N, C: chain ends. Residues, ends and D or L forms follow the SMILES beside them. Groups on a side chain read outwards from the residue. *: point of attachment. C18 diacid = O=C(O)CCCCCCCCCCCCCCCCC(=O)*; γGlu = O=C(O)[C@H](CCC(=O)[*:2])N[*:1]; AEEA = NCCOCCOCC(=O)O

Series [1] has as its target T1, rat amylin 3(a) receptor (rat calcitonin(a) receptor+rat RAMP3) (Rattus norvegicus, UniProt P32214+Q9JJ73).
T1 construct: expressed in transfected cells; host or cells: BHK tk'ts 13 (transient, FuGENE 6)
T1 sequence (P32214 25-479 isoform P32214-2 limits assumed): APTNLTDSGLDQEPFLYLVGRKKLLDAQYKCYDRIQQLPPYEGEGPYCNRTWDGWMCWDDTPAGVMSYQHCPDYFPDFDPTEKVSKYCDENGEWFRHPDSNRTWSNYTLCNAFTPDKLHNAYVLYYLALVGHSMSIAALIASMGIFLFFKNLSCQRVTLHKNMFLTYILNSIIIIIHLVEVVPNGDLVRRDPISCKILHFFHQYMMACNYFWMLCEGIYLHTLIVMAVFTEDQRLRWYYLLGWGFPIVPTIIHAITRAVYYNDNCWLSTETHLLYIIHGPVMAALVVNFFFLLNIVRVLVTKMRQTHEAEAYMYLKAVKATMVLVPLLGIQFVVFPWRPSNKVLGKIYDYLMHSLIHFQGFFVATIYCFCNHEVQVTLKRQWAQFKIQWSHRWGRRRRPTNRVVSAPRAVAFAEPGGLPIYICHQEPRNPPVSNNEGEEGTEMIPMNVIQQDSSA
T1 sequence (Q9JJ73 24-147 partner limits assumed): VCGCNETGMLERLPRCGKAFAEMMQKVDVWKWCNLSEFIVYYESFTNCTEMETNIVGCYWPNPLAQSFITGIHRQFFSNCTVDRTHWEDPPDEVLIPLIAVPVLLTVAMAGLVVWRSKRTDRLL
In words: Assay (II)b functional assay, rat amylin receptor (cAMP FlashPlate). Type of series: cell-based. The conditions noted are these: Table 11. From the text:
Assay (II)b—Rat Calcitonin and Rat Amylin Receptor Assays
Activation of calcitonin and amylin (coexpression of calcitonin receptor and receptor activity modifying proteins (RAMP)) receptors lead to increased intracellular concentrations of cAMP. In order to quantify the cAMP levels in transiently transfected cells the Adenylyl Cyclase Activation FlashPlate® Assay from Perkin Elmer was used. The basic principle of the FlashPlate® Assay is a competition between radioactive and non-radioactive cAMP generated by the cells for a fixed number of binding sites.
Construction of Rat Calcitonin(a)- and Rat Amylin 3(a)-Receptor Cells.
BHK tk'ts 13 cells were transiently transfected with either rat calcitonin (a) receptor or amylin 3 (a) receptor (rat calcitonin(a) receptor+rat RAMP3) using FuGENE® 6 (Roche), according to the manufacturers recommendations.
24 hours after transient transfection the cells (rat calcitonin(a)- or rat amylin 3(a)-receptor cells) were added (100.000 cells/well) to the 96 well FlashPlates® with samples or standard in FlashPlate stimulation buffer with IBMX and incubated for 30 min. Detection mix was created according to manufacturers protocol and scintillation measured after 3 h of incubation on TopCounter™ (Packard).

Series [2] in a line: Assay (IV) determination of solubility. Type of series: physicochemical. The method, then:
Assay (IV)—Determination of Solubility
The polypeptide was dissolved in water at −500 nmol/ml and mixed 1:1 with a series of buffers (100 mM glycylglycine pH 3.0, 100 mM glycylglycine pH 4.0, 100 mM glycylglycine pH 5.0, 100 mM bistrispropane pH 6.0, 100 mM bistrispropane pH 6.5, 100 mM bistrispropane pH 7.0, 100 mM bistrispropane pH 7.5, 100 mM bistrispropane pH 8.0). After 18 hours at room temperature the samples were centrifuged and the polypeptide concentration determined by HPLC.

Series [3] concerns the target T2, human amylin 3(a) receptor (human calcitonin receptor + RAMP-3) (Homo sapiens, UniProt O60896+P30988).
T2 construct: expressed in transfected cells; CRE-luciferase reporter
T2 sequence (P30988 25-474): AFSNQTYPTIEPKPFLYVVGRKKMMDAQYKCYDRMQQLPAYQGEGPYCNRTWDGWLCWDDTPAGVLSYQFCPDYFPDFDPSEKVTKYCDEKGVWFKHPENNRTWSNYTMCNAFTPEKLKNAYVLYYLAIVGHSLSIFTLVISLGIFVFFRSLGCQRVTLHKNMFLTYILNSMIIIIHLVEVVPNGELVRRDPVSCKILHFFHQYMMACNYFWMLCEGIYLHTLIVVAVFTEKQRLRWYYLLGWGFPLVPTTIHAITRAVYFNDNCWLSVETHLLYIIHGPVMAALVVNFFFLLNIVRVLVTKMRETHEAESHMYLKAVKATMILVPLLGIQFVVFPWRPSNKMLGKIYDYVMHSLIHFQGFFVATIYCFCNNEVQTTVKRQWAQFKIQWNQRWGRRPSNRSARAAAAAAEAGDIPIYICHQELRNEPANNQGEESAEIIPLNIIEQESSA
T2 sequence (O60896 24-148 partner): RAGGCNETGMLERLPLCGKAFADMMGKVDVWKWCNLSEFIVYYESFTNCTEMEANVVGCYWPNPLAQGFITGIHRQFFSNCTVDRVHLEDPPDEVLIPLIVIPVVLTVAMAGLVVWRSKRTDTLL
The experiment in a line: Assay (II)a functional assay, human amylin receptor (CRE luciferase reporter in BHK cells). Type of series: cell-based. An excerpt: (§1) 1. Luciferase Assay Outline
(§2) Activation of calcitonin and amylin (coexpression of calcitonin receptor and receptor activity modifying proteins (RAMP)) receptors lead to increased intracellular concentrations of cAMP. Consequently, transcription is activated by promoters containing multiple copies of the cAMP response element (CRE). It is thus possible to measure amylin activity by the use of a CRE luciferase reporter gene introduced into BHK cells also expressing calcitonin or amylin receptors.
(§3) A BHK570 cell line was stably transfected with the human calcitonin receptor and a CRE-responsive luciferase reporter gene. The cell line was further transfected with RAMP-3, using standard methods. This turns the calcitonin receptor into an amylin 3(a) receptor. Methotrexate, Neomycin, and Hygromycin are selection markers for luciferase, the calcitonin receptor, and RAMP-3, respectively.
(§4) To perform activity assays, BHK calcitonin (a) receptor- or amylin 3(a)-receptor/CRE-luc cells were seeded in white 96 well culture plates at a density of about 20.000 cells/well. […] After incubation overnight at 37° C. and 5% CO2, the growth medium was replaced by 50 μl/well assay medium (DMEM (without phenol red), Glutamax™, 10% FBS, and 10 mM Hepes, pH 7.4). Further, 50 μl/well of standard or sample in assay buffer were added. After 3 hours incubation at 37° C. and 5% CO2, the assay medium with standard or sample were removed and replaced by 100 μl/well PBS. Further, 100 μl/well LucLite™ was added. The plates were sealed and incubated at room temperature for 30 minutes. Finally, luminescence was measured on a TopCounter (Packard) in SPC (single photon counting) mode.
On the technique in general: Reporter assays use an easily measured gene product as a stand-in for the process of interest.

Series [4] addresses T3, human calcitonin receptor (Homo sapiens, UniProt P30988).
T3 construct: expressed in transfected cells; CRE-luciferase reporter
T3 sequence (P30988 25-474): T2 sequence (P30988 25-474)
The experiment in a line: Assay (II)a functional assay, human calcitonin receptor (CRE luciferase reporter in BHK cells). Type of series: cell-based.
Text: as §1, §2, §3, §4

The term EC50 denotes the concentration needed to bring the measured effect to its halfway point. The term solubility denotes the dissolved amount per volume that the medium holds. Turning to `CC[C@H](C)[C@H](NC(=O)[C@@H]1CCCN1C(=O)CNC(=O)[C@H](Cc1ccccc1)NC(=O)[C@H](CC(N)=O)NC(=O)[C@H](CCCCNC(=O)COCCOCCNC(=O)COCCOCCNC(=O)CC[C@H](NC(=O)CCCCCCCCCCCCCCCCC(=O)O)C(=O)O)NC(=O)[C@H](CO)NC(=O)[C@H](CO)NC(=O)[C@H](Cc1c[nH]cn1)NC(=O)[C@H](Cc1c[nH]cn1)NC(=O)[C@H](CC(C)C)NC(=O)[C@H](Cc1ccccc1)NC(=O)[C@H](CCC(=O)O)NC(=O)[C@H](C)NC(=O)[C@H](CC(C)C)NC(=O)[C@H](CCCNC(=N)N)NC(=O)[C@H](CCC(N)=O)NC(=O)[C@@H](NC(=O)[C@H](C)NC(=O)[C@@H]1CSSC[C@H](NC(=O)[C@@H](N)CCCCN)C(=O)N[C@@H](CC(N)=O)C(=O)N[C@@H]([C@@H](C)O)C(=O)N[C@@H](C)C(=O)N[C@@H]([C@@H](C)O)C(=O)N1)[C@@H](C)O)C(=O)N[C@@H](CC(C)C)C(=O)N1CCC[C@H]1C(=O)N1CCC[C@H]1C(=O)N[C@H](C(=O)N[C@@H](CC(N)=O)C(=O)N[C@H](C(=O)NCC(=O)N[C@@H](CO)C(=O)N[C@@H](CCC(=O)O)C(=O)N[C@H](C(=O)N[C@@H](Cc1ccc(O)cc1)C(N)=O)[C@@H](C)O)C(C)C)[C@@H](C)O` [Example 74, N-epsilon21-[2-(2-{2-[2-(2-{2-[(S)-4-Carboxy-4-(17-carboxyheptadecanoylamino)butyrylamino]ethoxy}ethoxy)acetylamino]ethoxy}ethoxy)acetyl]-[Glu14,His17,Lys21,Glu35]-pramlintide] (H-KCNTATCATQRLAEFLHHSSK([AEEA-AEEA-γGlu-C18 diacid])NFGPILPPTNVGSETY-NH2; disulfide 2-7 (inferred); N-terminus and C-terminus assumed), the EC50 in series [1] came to 0.504 nM; in series [3], 0.184 nM; in series [3] (Table 4) it was 0.184 nM; in series [3] (Table 5), 0.184 nM; in series [3] (Table 6, human amylin receptor), 0.184 nM; in series [3] (Table 7, human amylin receptor), 0.184 nM. Further, the EC50 was 0.184 nM in series [3] (Table 8, human amylin receptor); 0.184 nM in series [3] (Table 11, human amylin receptor); 0.216 nM in series [4] (Table 7, human calcitonin (CTa) receptor); 0.216 nM in series [4] (Table 11, human calcitonin receptor, read-out: CTa receptor human EC50). In addition, the solubility at 18 h in series [2] (bistrispropane buffer, pH 6.5, read-out: Solubility) is over 200 µM; in series [2] (bistrispropane buffer, pH 7.5, read-out: Solubility pH 7.5), over 200 µM; in series [2] (bistrispropane buffer, pH 6.0, read-out: Solubility) it was over 200 µM; in series [2] (bistrispropane buffer, pH 7.0, read-out: Solubility pH 7.0), over 200 µM; in series [2] (bistrispropane buffer, pH 8.0, read-out: Solubility), over 200 µM; in series [2] (glycylglycine buffer, pH 3.0, read-out: Solubility) it was over 200 µM. Besides, the solubility at 18 h was over 200 µM in series [2] (glycylglycine buffer, pH 4.0, read-out: Solubility pH 4.0); over 200 µM in series [2] (glycylglycine buffer, pH 5.0, read-out: Solubility); over 200 µM in series [2] (pH 4.0, read-out: Solubility); over 200 µM in series [2] (pH 7.0, read-out: Solubility); over 200 µM in series [2] (pH 7.5, read-out: Solubility).
